Several values for one entry are separate records, joined by “and”; a condition that tells them apart may be missing. Equal entries are not always repeated. Where two headings read alike, the source gives them in different places.
How the values were obtained:
[1] = human, in vivo
in vivo [2] = settings: nude, mouse, 10.6 mg/kg
[3] = test system: HT-29 human colorectal carcinoma cell line; assay: MTT colometric assay; assay type: cell-based; settings: for GI50: Homo sapiens
Description: Two different methods were used, the MTT colometric assay and the clonogenic assay. a)MTT colometric assay: HT-29 cells were plated at 2.5×10^3 cells/well in a 96-well tissue culture plate and allowed to attach overnight. […] After the incubation period with the drug, cells were washed and fresh drug-free medium added. On day 3, cellular proliferation was evaluated by the tetrazolium dye assay.

[4] = cited from earlier work; for recommended doses: DLT neutropenia and skin rash
in vivo [5] = settings: female, mouse
Description: Antitumor efficacy studies: In vivo efficacy studies were conducted using the HT-29 human colorectal cancer cells grown as xenografts in nude mice. Female athymic CD-1(nu/nu) mice were injected s.c. with 2×10^6 human colon HT-29 tumor cells. Tumor bearing animals were randomised (10 to 15 per group) and treatment started when tumor volumes reached 80 to 120 mm^3 (days 6 to 9; depending on the study). Tumor measurements, taken by callipers twice weekly, were converted to tumor volumes (in mm^3) using the standard formula, [width (mm)]^2×length (mm)×0.52. […] The pumps were implanted s.c. under sterile conditions at the site opposite to the tumor. These pumps (internal volume, 200 μl) continuously deliver test agent at a rate of 1 μl/h for 200 h (8.3 days total). Pumps were removed after 1, 3, 5 or 6 days, thus insuring continuous delivery of test agent over the course of the experiment. […] To monitor the drug-associated toxicity, mice were weighed at least twice a week and daily inspected for observable clinical signs. Statistical analysis was performed by ANOVA (ANalysis Of VAriance) or by Student's t test. Differences were considered to be significant at P<0.05.

[6] = design: species or system mice; settings: athymic CD-1 (nu/nu) nude, mouse, in vivo
Description: Blood was centrifuged at 10,000 g for 10 minutes and plasma was collected and frozen at −20° C. until further analysis. An aliquot of mouse plasma (100 μl) was precipitated with 300 μl of acetonitrile containing 3TC® (Shire BioChem) as internal standard. After centrifugation at 3,000 ×g for 5 minutes, 300 μl of supernatant was collected and evaporated to dryness under a gentle stream of nitrogen. The residue was then reconstituted with 100 μl of deionized water. […] The chromatography was achieved on a Luna C18 column (150×2 mm, 5 μm, Phenomenix, Torrance, Calif.) with a flow rate of 0.25 ml/min. The aqueous mobile phase, consisting of 10 mM ammonium acetate buffer, pH6.8, was held for 5 minutes and followed by a linear gradient of 0-50% acetonitrile over 8 minutes. Sample analysis was performed on a LC/MS/MS (TSQ7000, Thermo Finnigan, San Jose, Calif.) equipped with electrospray source.

[7] = test system: HT-29 human colorectal carcinoma cell line; assay: Clonogenic assay; assay type: cell-based; settings: HT-29 clonal growth; for IC50: Homo sapiens
Description: Two different methods were used, the MTT colometric assay and the clonogenic assay. b)Clonogenic assay: HT-29 cells were plated on 6-well flat-bottomed plates (200-400 cells) and allowed to attach overnight. […] After the incubation period with the drug, cells were washed and fresh drug-free medium added. On day 10, cells were exposed to Crystal violet stain.

nucleoside transporters = settings: membrane permeation not mediated by nucleoside transporters; cited from earlier work
[8] = rats, 10 mg/kg injection; cited from earlier work
[9] = mice, bolus i.v. 20 mg/kg, cited from earlier work
advanced solid tumors = assay: Phase I continuous infusion in advanced solid tumors: toxicity; assay type: in vivo, human
Description: This is a dose and infusion length finding study to achieve a minimum steady-state plasma concentration of 21 ng/mL (0.1 μM) for 72-120 hr. The starting dose of 3 mg/m^2/d was determined from PK simulation modeling using data obtained from Phase I studies (30-minute infusions). The starting infusion duration was 48 hr with escalation to 72 hr, 96 hr and 120 hr in cohorts of 3-6 patients.
In the results evaluated to date, 12 adults with refractory solid tumors have been treated. The first cohort (4 patients) received drug for 48 h (total dose 6 mg/m^2) with no DLT. The second cohort of patients was treated for 72 hr (total 9 mg/m^2). […] The 2 patients with DLT had the highest plasma concentrations. Enrollment is ongoing at 2.25 mg/m^2/d for 96 h (total 9 mg/m^2).

[10] = test system: HT-29 human colorectal cancer cells grown as xenografts in nude mice; assay: Antitumor efficacy studies in human xenografts; assay type: in vivo; settings: for day from which tumor regressions were observed: 6-day infusion; for inhibition of tumor growth: 53-63 mg/kg
Description: Antitumor efficacy studies: In vivo efficacy studies were conducted using the HT-29 human colorectal cancer cells grown as xenografts in nude mice. Female athymic CD-1(nu/nu) mice were injected s.c. with 2×10^6 human colon HT-29 tumor cells. Tumor bearing animals were randomised (10 to 15 per group) and treatment started when tumor volumes reached 80 to 120 mm^3 (days 6 to 9; depending on the study). Tumor measurements, taken by callipers twice weekly, were converted to tumor volumes (in mm^3) using the standard formula, [width (mm)]^2×length (mm)×0.52. […] The pumps were implanted s.c. under sterile conditions at the site opposite to the tumor. These pumps (internal volume, 200 μl) continuously deliver test agent at a rate of 1 μl/h for 200 h (8.3 days total). Pumps were removed after 1, 3, 5 or 6 days, thus insuring continuous delivery of test agent over the course of the experiment. […] Compound efficacy was assessed at the end of the study by percentage of T/C defined as the mean treated tumor volume/mean control tumor volume×100%, with a T/C of about 40% or less being indicative of antitumor activity (J. Plowman et al., Human tumor xenograft models in NCI drug development in Teicher BA (ed) “Anticancer Drug Development Guide: Preclinical screening, clinical trials, and approval”. Humana Press Inc., Totowa, N.J. 1997;101-125). To monitor the drug-associated toxicity, mice were weighed at least twice a week and daily inspected for observable clinical signs. Statistical analysis was performed by ANOVA (ANalysis Of VAriance) or by Student's t test. Differences were considered to be significant at P<0.05.
Once we had established the optimum dose range (activity and well tolerated toxicity), a second study was performed to establish the time necessary to obtain optimum antitumor efficacy. This study was performed using 5, 10 and 20 mg/ml infused over 1, 3 and 5 days, when the tumors had reached 85 mm^3 (day 6).
Bolus administration was given by intravenous injection in the tail vein (10 ml/kg).

[11] = bolus administration
[12] = test system: relapsed acute myeloid leukemia (AML); settings: in vivo
cytidine deaminase (CDA) = cytidine deaminase (CDA) (Homo sapiens, UniProt P32320); settings: cited from earlier work
Sequence of cytidine deaminase (CDA) (P32320 whole entry, species assumed, the tested form may be a part): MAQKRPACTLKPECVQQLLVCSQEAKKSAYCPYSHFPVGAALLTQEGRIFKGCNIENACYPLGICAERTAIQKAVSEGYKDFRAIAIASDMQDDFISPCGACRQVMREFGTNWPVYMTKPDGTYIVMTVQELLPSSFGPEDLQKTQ

[13] = test system: relapsed acute myeloid leukemia (AML); assay: Phase I continuous infusion in relapsed AML: toxicity and antileukemic activity

Nc1ccn([C@@H]2CO[C@H](CO)O2)c(=O)n1 [troxacitabine, (−)-β-L-Dioxolane-Cytidine]
drug exposure above or equal to 0.4 μM [1]: 120 h
interpatient variation in observed concentrations at each protocol time-point [1]: 2-to 3 fold
AUC at 5 days (in vivo [2]): 18800 ng·h/mL
potency of 72-hour versus 1 hr exposure ([3]; HT-29, MTT): 265 fold
GI50 ([3]; HT-29, 24 h, HT-29, 24 hr drug exposure): 5 µM
GI50 ([3]; HT-29, 72 h, HT-29, 72 hr drug exposure): 1 µM
GI50 ([3]; HT-29, HT-29, 1 hr drug exposure, read on day 3): 265 µM
GI50 ([3]; HT-29, HT-29, 4 hr drug exposure, read on day 3): 46 µM
drug exposure above or equal to 0.4 μM ([4]; bolus administration): 19.3 h
Cmax plasmatic ([4]; humans, 1.5 and 1.2 mg/m^2/d, first day): 110 to 140 ng/mL
time to steady state plasma concentration ([4]; humans, 5 half-lives (5×12 hrs)): 60 h
recommended doses ([4]; humans, 30-minute infusion every 21 days): 12.5 mg/m^2 and 10 mg/m^2
recommended doses ([4]; humans, 30-minute infusion on 5 consecutive days every 4 weeks): 1.5 mg/m^2/d and 1.2 mg/m^2/d
plasma concentrations 5 minutes after drug administration ([4]; humans, administered clinical bolus doses): 0.6 to 4 µM
drug concentration less than 30 minutes after the end of infusion ([4]; humans, i.v. 10 mg/m^2): less than 1 μM
elimination t1/2 ([4]; humans, i.v. 10 mg/m^2): 13 h
time drug concentration remained above 0.1 μM ([4]; humans, i.v. 10 mg/m^2): approximately 12 hours
maximum tolerated dose in humans ([4]; i.v. administration): 10 mg/m^2
Cmax ([4]; read-out: Cmax plasmatic, humans, 1.5 and 1.2 mg/m^2/d, first day): 0.52 to 0.66 µM
Cmax ([4]; read-out: plasma Cmax, humans, i.v. 10 mg/m^2): 4.1 µM
MTD at 6 days (in vivo [5]): 45 to 50 mg/kg/day
peak plasma concentrations with prolonged infusion [6]: 0.7 to 1.6 µM
change in potency when incubation time increased from 72 hr to 144 hr [7]: No further increase in potency
difference between IC50 values following 24- and 72 hr exposures [7]: 5 fold
IC50 ([7]; 24 hr exposure): 2.2 µM
IC50 ([7]; 72 hr exposure): 0.4 µM
major route of cellular uptake (nucleoside transporters): passive diffusion
Cmax [8]: ≥ 100 µM
Cmax ([9]; at 2 minutes, read-out: plasma Cmax): ≥ 100 µM
elimination t1/2 [9]: 0.267 h
plasma drug concentration by 60 minutes [9]: 4.5 µM
main non-hematological toxicities (advanced solid tumors; solid tumor patients, continuous infusion): mild to moderate skin rash
DLT (advanced solid tumors; solid tumors, 2 mg/m^2/d over 3 days (total 6 mg/m^2), three patients): no DLTs observed
DLT (advanced solid tumors; solid tumors, 3 mg/m^2/d for 48 h (total 6 mg/m^2), 4 patients): no DLT
DLT's, patients (advanced solid tumors; solid tumors, 3 mg/m^2/d for 72 hr (total 9 mg/m^2), Grade 4 neutropenia, fever, Grade 3 thrombocytopenia): 2 of the 5
body weight loss (50 mg/ml, 3-5 days following initiation of treatment): ≤ 20%
maximum tolerated dose (MTD) (pump concentration, continuous infusion 6 days, nude mice): 50 mg/mL
T/C ([10]; 0.5 mg/ml pump, continuous infusion 6 days, day 31): 79%
T/C ([10]; 5 mg/ml pump, continuous infusion 6 days, day 31): 42%
antitumor activity of infusion compared with daily bolus ([10]; 10 mg/ml infusion over 6 days vs 10.6 mg/kg daily for 5 consecutive days): same antitumor activity
T/C ([10]; 10 mg/ml pump, continuous infusion 6 days, day 31): 22%
day from which tumor regressions were observed ([10]; 10 mg/ml): 29 days
tumor course ([10]; 20 mg/ml infused over 3 days): tumor stasis during the first week after treatment followed by tumor regrowth
T/C ([10]; 20 mg/ml infused over 3 days, end of study): 44%
tumor regressions ([10]; 20 mg/ml, 5-day infusion): Tumor regressions were observed from day 18 till day 28 followed by regrowth
T/C ([10]; 20 mg/ml, 5-day infusion, end of study): 27%
T/C ([10]; 50 mg/ml pump, continuous infusion 6 days, day 31): 11%
day from which tumor regressions were observed ([10]; 50 mg/ml): 21 days
inhibition of tumor growth ([10]; 3-day administration regimens (q7d×3 or 3-day infusions)): intermediate
inhibition of tumor growth ([10]; 5-6 day regimens (q1d×5 or 6-day infusions)): optimal
effect on tumor growth ([10]; one day infusion (24 h), 5, 10 and 20 mg/ml): no effect
antitumor activity ([10]; single bolus i.v. injection 63 mg/kg): low activity
tolerated drug systemic concentrations, mice compared with humans [11]: over 20 fold
tolerated exposures, mice compared with humans [11]: over 6 fold
hand-foot syndrome ([12]; human): Grade 1 and 2 hand-foot syndrome was also observed at all dose levels
dose-limiting Grade 3 stomatitis, patients ([12]; human, 6 days): 2 of 4
dose-limiting stomatitis, patients [12]: Two of the four
skin rash [12]: generalized mild to moderate skin rash was observed at all dose levels
deamination by cytidine deaminase (CDA) (cytidine deaminase (CDA)): resistant to deamination
bone marrow aplasia, patients ([13]; AML patients who received 40.4-60.6 mg/m^2): 10 of 17
higher cumulative doses achieved than by bolus administration ([13]; AML patients, continuous infusion): 25%
recommended dose ([13]; AML patients, continuous infusion administered over five days): 50.5 mg/m^2
bone marrow hypoplasia/aplasia ([13]; first 7 AML patients, cumulative doses ≦30.3 mg/m^2): not seen
patients who achieved remissions ([13]; first 24 AML patients treated): 4 patients

Source: US20040248915A1 (priority 2003, published 2004)
